Data from the NIST ThermoML archive (doi:10.1016/j.jct.2016.09.022).

Experiments:
[1] = refractive index (Na D-line) (dimensionless); details: 298.15 K; 101.33 kPa; Liquid; Standard Abbe refractometry
[2] = Liquid; for speed of sound: Frequency=1.5 MHz, Single path-length method; for mass density: 298.15 K, 101.33 kPa, Vibrating tube method

CCCCCCCC [octane]
Details	mass density [kg/m3]	refractive index
[1]	–	1.3951
[2]	698.4	–

speed of sound [m/s], [2]
Details	283.15 K	293.15 K	303.15 K	313.15 K	323.15 K	333.15 K	343.15 K
100 kPa	1234.6	1193.7	1151.8	1112.1	1071.1	1030.9	990.7
5100 kPa	1267.1	1227.9	1187.6	1149	1110.4	1072.4	1034.3
10100 kPa	1296.9	1259.5	1221	1183.4	1146.1	1110.1	1074.2
20100 kPa	1353.6	1317.2	1282.1	1247.3	1212.3	1178.2	1145
30100 kPa	1405.7	1370.4	1336.8	1303.8	1271.6	1239.8	1208.7
40100 kPa	1453.5	1419.6	1388.1	1356.4	1325.3	1295	1265.9
50100 kPa	1498	1465.6	1435.5	1405.1	1375.2	1346.2	1318
60100 kPa	1539.8	1508.4	1480	1450.7	1421.8	1393.9	1367.8
70100 kPa	1579.8	1549	1521.7	1493.2	1465.5	1438.5	1412.8
80100 kPa	1619	1587.3	1561.4	1533.6	1506.6	1480.2	1455.5
90100 kPa	1652.4	1623.9	1598.9	1571.9	1545.7	1519.8	1496
95100 kPa	1670.7	1641.8	1617	1590.2	1564.5	1539	1515.2

CCO [ethanol]
Details	mass density [kg/m3]	refractive index
[1]	–	1.3593
[2]	785.1	–

speed of sound [m/s], [2]
Details	283.15 K	293.15 K	303.15 K	313.15 K	323.15 K	333.15 K	343.15 K
100 kPa	1198.8	1163.8	1129.3	1094.7	1060.4	1027	992.92
5100 kPa	1227.7	1193.5	1159.8	1127.7	1094.5	1062.7	1030.2
10100 kPa	1255.7	1222.5	1189.8	1157.4	1126.5	1096.3	1065.8
20100 kPa	1306.5	1275.6	1245	1214.7	1185.2	1156.9	1129
30100 kPa	1353.1	1323.7	1295	1266.5	1238.8	1212.1	1185.8
40100 kPa	1397	1368.7	1340.6	1313.5	1287.5	1262.3	1237.5
50100 kPa	1437.9	1410.7	1384.2	1358.2	1332.4	1310.5	1284.9
60100 kPa	1476.1	1449.9	1424.6	1399.1	1374.8	1351.2	1328.8
70100 kPa	1512.5	1486.8	1462.7	1438.4	1414.7	1391.9	1370.2
80100 kPa	1547.2	1522.1	1498.1	1475.7	1452	1429.6	1409.5
90100 kPa	1580.2	1555.7	1532.5	1510.1	1487.5	1466.1	1446.3
95100 kPa	1596.1	1571.8	1549.3	1526.4	1504.5	1483.5	1464.1

CCCCCCC [heptane]
Details	mass density [kg/m3]	refractive index
[1]	–	1.3852
[2]	679.5	–

speed of sound [m/s], [2]
Details	283.15 K	293.15 K	303.15 K	313.15 K	323.15 K	333.15 K	343.15 K
100 kPa	1197.2	1153.9	1111.4	1068.8	1025.9	983.91	942.89
5100 kPa	1231.5	1189.6	1148.8	1108.9	1068.6	1028.8	989.64
10100 kPa	1263.8	1223.4	1184.1	1145.2	1107.3	1069.8	1032.5
20100 kPa	1323.2	1284.8	1248.7	1212.3	1176.7	1141.9	1108.4
30100 kPa	1376.7	1340.1	1306.4	1272.1	1239	1206.4	1174.6
40100 kPa	1426.3	1391.5	1359.2	1326.3	1295.3	1264.6	1234.9
50100 kPa	1472.5	1439	1408.5	1377.4	1346.7	1317.4	1289.3
60100 kPa	1515.6	1483.3	1454.5	1424.7	1395.2	1366.6	1339.5
70100 kPa	1556.1	1525.3	1497.4	1468.7	1440.1	1412.9	1387
80100 kPa	1593.8	1564.9	1538.3	1510.3	1482.6	1456	1431.2
90100 kPa	1629.7	1602.3	1577	1549.8	1522.8	1496.7	1472.7
95100 kPa	1646.4	1620.6	1595	1568.8	1542.2	1516.4	1492.7
